Data taken from ChEMBL document CHEMBL4177611, “Discovery of aminocyclohexene analogues as selective and orally bioavailable hNav1.7 inhibitors for analgesia” (Bioorg Med Chem Lett, 2017).
Calls of active or inactive are those of the source.

Assays:
[1] = Volume of distribution at steady state in Sprague-Dawley rat at 3 mg/kg administered as single iv bolus by LC-MS/MS analysis; format: ADME, organism-based; conditions: in vivo, read-out: Vdss
[2] = biological target: Sodium channel protein type 9 subunit alpha (Homo sapiens, UniProt Q15858); assay: Inhibition of human Nav1.7 expressed in CHO-K1 cells at -120 mV holding potential incubated over 5 mins measured at 15 secs interval by Qpatch clamp assay; format: cell-based
Sequence of Sodium channel protein type 9 subunit alpha (Q15858 whole entry): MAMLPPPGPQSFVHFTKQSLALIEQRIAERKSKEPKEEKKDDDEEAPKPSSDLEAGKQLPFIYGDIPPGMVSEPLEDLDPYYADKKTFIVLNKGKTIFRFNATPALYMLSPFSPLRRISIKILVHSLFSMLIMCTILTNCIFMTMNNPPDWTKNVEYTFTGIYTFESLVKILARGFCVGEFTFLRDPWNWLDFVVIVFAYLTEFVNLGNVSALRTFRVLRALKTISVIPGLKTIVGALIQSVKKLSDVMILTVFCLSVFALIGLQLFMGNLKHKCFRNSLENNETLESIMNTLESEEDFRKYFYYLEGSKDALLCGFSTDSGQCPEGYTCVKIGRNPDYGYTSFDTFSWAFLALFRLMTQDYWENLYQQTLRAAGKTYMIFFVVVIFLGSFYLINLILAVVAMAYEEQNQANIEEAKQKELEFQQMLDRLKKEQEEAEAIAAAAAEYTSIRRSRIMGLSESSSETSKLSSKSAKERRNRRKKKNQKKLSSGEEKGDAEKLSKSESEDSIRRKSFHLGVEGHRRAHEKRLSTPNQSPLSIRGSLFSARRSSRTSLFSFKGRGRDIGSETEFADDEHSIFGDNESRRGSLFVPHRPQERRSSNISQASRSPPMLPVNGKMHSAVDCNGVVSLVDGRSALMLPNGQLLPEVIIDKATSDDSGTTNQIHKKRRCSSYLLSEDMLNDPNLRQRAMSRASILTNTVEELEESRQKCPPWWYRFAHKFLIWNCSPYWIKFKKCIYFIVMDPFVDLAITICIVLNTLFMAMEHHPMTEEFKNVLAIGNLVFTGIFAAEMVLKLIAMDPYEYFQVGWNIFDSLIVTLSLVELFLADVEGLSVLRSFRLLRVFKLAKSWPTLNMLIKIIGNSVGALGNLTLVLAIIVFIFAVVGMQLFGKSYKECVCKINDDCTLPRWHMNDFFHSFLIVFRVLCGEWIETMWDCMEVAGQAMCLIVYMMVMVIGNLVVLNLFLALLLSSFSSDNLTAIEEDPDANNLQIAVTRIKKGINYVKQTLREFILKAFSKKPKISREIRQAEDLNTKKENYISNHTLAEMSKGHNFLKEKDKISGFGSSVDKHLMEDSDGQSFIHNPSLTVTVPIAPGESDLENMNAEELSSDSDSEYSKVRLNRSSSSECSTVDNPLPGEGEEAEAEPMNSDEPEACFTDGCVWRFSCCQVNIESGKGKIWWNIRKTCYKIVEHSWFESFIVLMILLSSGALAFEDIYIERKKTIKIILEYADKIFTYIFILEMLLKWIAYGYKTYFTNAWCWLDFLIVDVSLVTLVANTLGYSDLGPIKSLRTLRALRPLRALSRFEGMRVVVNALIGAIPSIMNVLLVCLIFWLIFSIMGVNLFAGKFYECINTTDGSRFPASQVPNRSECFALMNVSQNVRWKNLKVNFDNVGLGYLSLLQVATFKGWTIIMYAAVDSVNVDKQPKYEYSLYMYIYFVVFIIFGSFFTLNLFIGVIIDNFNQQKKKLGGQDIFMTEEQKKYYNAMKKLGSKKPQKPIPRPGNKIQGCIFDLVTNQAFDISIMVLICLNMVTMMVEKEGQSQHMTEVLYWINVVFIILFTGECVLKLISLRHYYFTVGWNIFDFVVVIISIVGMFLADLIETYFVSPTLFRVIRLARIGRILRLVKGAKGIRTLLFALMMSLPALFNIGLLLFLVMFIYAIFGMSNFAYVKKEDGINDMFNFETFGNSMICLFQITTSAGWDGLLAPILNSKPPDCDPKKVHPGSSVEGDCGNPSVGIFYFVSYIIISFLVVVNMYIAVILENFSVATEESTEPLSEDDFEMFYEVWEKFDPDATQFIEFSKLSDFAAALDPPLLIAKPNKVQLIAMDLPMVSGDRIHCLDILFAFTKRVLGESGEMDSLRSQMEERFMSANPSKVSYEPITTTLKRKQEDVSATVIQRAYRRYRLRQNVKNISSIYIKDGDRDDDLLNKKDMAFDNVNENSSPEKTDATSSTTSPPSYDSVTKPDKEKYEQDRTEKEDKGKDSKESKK

[3] = Clearance in Sprague-Dawley rat administered as single iv bolus by LC-MS/MS analysis; format: ADME, organism-based; conditions: in vivo
[4] = Volume of distribution at steady state in Sprague-Dawley rat administered as single iv bolus by LC-MS/MS analysis; format: ADME, organism-based; conditions: in vivo, read-out: Vdss
[5] = AUC in Sprague-Dawley rat at 10 mg/kg administered as single dose via oral gavage by LC-MS/MS analysis; format: ADME, organism-based; conditions: in vivo
[6] = Oral bioavailability in Sprague-Dawley rat at 10 mg/kg administered as single dose via gavage by LC-MS/MS analysis; format: ADME, organism-based; conditions: in vivo
[7] = Initial plasma concentration in Sprague-Dawley rat at 3 mg/kg administered as single iv bolus by LC-MS/MS analysis; format: ADME, organism-based
[8] = Half life in Sprague-Dawley rat at 3 mg/kg administered as single iv bolus by LC-MS/MS analysis; format: ADME, organism-based; conditions: in vivo
[9] = Clearance in Sprague-Dawley rat at 3 mg/kg administered as single iv bolus by LC-MS/MS analysis; format: ADME, organism-based; conditions: in vivo
[10] = AUC (0 to last) in Sprague-Dawley rat at 3 mg/kg administered as single iv bolus by LC-MS/MS analysis; format: ADME, organism-based; parameters: dose 3 mg/kg, route intravenous, time 0 - last; conditions: in vivo
[11] = Cmax in Sprague-Dawley rat at 10 mg/kg administered as single dose via oral gavage by LC-MS/MS analysis; format: ADME, organism-based; parameters: dose 10 mg/kg, route oral; conditions: in vivo
[12] = Tmax in Sprague-Dawley rat at 10 mg/kg administered as single dose via oral gavage by LC-MS/MS analysis; format: ADME, organism-based; conditions: in vivo
[13] = Half life in Sprague-Dawley rat at 10 mg/kg administered as single dose via oral gavage by LC-MS/MS analysis; format: ADME, organism-based; conditions: in vivo
[14] = AUC (0 to last) in Sprague-Dawley rat at 10 mg/kg administered as single dose via oral gavage by LC-MS/MS analysis; format: ADME, organism-based; parameters: dose 10 mg/kg, route oral, time 0 - last; conditions: in vivo
[15] = system: Rattus norvegicus; assay: Unbound AUC (0 to last) in Sprague-Dawley rat at 10 mg/kg administered as single dose via oral gavage by LC-MS/MS analysis; format: ADME, organism-based; conditions: in vivo
[16] = Dissociation constant, pKa of the compound; format: physicochemical
[17] = biological target: Sodium channel protein type 5 subunit alpha (Homo sapiens, UniProt Q14524); assay: Inhibition of human Nav1.5 expressed in HEK293 cells at -120 mV holding potential incubated over 5 mins measured at 15 secs interval by Qpatch clamp assay; format: cell-based
[18] = biological target: Sodium channel protein type 4 subunit alpha (Homo sapiens, UniProt P35499); format: ADME
Sequence of Sodium channel protein type 4 subunit alpha (P35499 whole entry): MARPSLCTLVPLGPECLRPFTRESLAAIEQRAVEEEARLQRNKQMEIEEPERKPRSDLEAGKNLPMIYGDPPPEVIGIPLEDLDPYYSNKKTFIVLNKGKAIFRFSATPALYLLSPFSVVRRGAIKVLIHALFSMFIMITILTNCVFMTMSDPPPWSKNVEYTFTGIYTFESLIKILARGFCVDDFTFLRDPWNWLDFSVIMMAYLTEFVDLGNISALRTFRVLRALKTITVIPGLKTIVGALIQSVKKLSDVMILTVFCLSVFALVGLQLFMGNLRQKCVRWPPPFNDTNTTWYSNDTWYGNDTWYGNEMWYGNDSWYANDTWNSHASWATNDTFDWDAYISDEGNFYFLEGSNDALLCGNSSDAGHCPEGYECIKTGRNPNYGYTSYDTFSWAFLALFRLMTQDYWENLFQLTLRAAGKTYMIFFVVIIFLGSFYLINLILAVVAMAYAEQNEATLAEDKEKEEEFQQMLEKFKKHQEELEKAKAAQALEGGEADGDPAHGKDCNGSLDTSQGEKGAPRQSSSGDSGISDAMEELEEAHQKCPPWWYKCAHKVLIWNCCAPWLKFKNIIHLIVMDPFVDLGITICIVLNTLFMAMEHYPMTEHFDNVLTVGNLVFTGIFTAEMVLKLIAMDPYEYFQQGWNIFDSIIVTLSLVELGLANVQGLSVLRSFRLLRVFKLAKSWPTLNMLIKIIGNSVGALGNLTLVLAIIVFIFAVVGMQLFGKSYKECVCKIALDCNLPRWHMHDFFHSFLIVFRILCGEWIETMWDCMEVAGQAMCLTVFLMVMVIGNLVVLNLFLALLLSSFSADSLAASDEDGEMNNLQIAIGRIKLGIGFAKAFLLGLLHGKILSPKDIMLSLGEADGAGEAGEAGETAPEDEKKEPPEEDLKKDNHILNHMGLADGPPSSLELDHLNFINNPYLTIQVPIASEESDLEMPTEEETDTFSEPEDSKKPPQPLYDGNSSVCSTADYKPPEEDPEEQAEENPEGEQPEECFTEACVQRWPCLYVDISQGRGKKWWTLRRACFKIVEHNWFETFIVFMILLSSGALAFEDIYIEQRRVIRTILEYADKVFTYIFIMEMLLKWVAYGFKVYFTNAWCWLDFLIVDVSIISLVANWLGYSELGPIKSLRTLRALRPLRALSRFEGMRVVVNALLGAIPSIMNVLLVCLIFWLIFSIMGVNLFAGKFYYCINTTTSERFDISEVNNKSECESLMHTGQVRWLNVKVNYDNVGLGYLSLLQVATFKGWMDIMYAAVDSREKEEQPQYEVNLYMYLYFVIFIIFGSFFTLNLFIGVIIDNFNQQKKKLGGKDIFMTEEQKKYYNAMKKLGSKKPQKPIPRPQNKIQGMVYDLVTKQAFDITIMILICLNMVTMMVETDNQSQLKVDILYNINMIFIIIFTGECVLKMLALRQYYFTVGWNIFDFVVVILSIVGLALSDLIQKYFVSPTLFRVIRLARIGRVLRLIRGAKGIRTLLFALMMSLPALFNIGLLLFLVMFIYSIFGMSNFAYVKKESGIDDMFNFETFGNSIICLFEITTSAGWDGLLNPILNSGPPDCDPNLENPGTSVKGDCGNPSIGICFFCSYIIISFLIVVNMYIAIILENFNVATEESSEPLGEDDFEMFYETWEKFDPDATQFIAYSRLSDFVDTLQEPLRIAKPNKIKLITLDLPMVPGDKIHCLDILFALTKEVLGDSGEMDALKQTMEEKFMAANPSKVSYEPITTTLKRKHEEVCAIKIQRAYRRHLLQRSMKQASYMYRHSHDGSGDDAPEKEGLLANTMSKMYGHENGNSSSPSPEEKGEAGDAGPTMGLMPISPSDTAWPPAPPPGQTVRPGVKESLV

[19] = Fraction unbound in human plasma at 2 uM after 4 hrs by LC-MS/MS analysis; format: ADME, cell-free
[20] = Fraction unbound in rat plasma at 2 uM after 4 hrs by LC-MS/MS analysis; format: ADME, cell-free
[21] = Intrinsic clearance in human liver microsomes at 1 uM after 60 mins in presence of NADPH by LC-MS/MS analysis; format: ADME, microsome; conditions: read-out: CLH
[22] = Intrinsic clearance in rat liver microsomes at 1 uM after 60 mins in presence of NADPH by LC-MS/MS analysis; format: ADME, microsome; conditions: read-out: CLH
[23] = system: Rattus norvegicus; assay: Antinociceptive activity in Sprague-Dawley rat formalin-induced nociception model assessed as inhibition of formalin-induced flinches in phase 2 at 30 mg/kg, po administered via oral gavage 60 mins before formalin challenge measured for 1 hr post dose; format: functional, organism-based
[24] = system: Rattus norvegicus; assay: Antinociceptive activity in Sprague-Dawley rat formalin-induced nociception model assessed as inhibition of formalin-induced flinches in phase 1 at 30 mg/kg, po administered via oral gavage 60 mins before formalin challenge measured for 1 hr post dose; format: functional, organism-based
[25] = system: Rattus norvegicus; assay: Antiallodynic activity in Sprague-Dawley rat spinal nerve ligation model assessed as reduction in mechanical allodynia by measuring paw withdrawal threshold at 100 mg/kg, po measured at 2 hrs post dose; format: functional, organism-based
[26] = Plasma concentration in Sprague-Dawley rat spinal nerve ligation model at 100 mg/kg administered as single dose via oral gavage measured after 1 hr by LC-MS/MS analysis; format: ADME, organism-based
[27] = Plasma concentration in Sprague-Dawley rat spinal nerve ligation model at 100 mg/kg administered as single dose via oral gavage measured after 2 hrs by LC-MS/MS analysis; format: ADME, organism-based
[28] = Plasma concentration in Sprague-Dawley rat spinal nerve ligation model at 100 mg/kg administered as single dose via oral gavage measured after 4 hrs by LC-MS/MS analysis; format: ADME, organism-based
[29] = Unbound plasma concentration in Sprague-Dawley rat spinal nerve ligation model at 100 mg/kg administered as single dose via oral gavage measured after 1 hr by LC-MS/MS analysis; format: ADME, organism-based; conditions: in vivo
[30] = Unbound plasma concentration in Sprague-Dawley rat spinal nerve ligation model at 100 mg/kg administered as single dose via oral gavage measured after 2 hrs by LC-MS/MS analysis; format: ADME, organism-based; conditions: in vivo
[31] = Unbound plasma concentration in Sprague-Dawley rat spinal nerve ligation model at 100 mg/kg administered as single dose via oral gavage measured after 4 hrs by LC-MS/MS analysis; format: ADME, organism-based; conditions: in vivo
[32] = Drug uptake in Sprague-Dawley rat dorsal root ganglion at 100 mg/kg, ig measured after 2.5 hrs by LC-MS/MS analysis; format: ADME, organism-based; conditions: in vivo, po
[33] = species on record: Homo sapiens; assay: Selectivity ratio of IC50 for human Nav1.4 to IC50 for human Nav1.7 expressed in CHO-K1 cells; format: cell-based
[34] = species on record: Homo sapiens; assay: Selectivity ratio of IC50 for human Nav1.5 expressed in HEK293 cells to IC50 for human Nav1.7 expressed in CHO-K1 cells; format: cell-based
[35] = biological target: T1, Cytochrome P450 1A2 (Homo sapiens, UniProt P05177)
T1 sequence (P05177 whole entry): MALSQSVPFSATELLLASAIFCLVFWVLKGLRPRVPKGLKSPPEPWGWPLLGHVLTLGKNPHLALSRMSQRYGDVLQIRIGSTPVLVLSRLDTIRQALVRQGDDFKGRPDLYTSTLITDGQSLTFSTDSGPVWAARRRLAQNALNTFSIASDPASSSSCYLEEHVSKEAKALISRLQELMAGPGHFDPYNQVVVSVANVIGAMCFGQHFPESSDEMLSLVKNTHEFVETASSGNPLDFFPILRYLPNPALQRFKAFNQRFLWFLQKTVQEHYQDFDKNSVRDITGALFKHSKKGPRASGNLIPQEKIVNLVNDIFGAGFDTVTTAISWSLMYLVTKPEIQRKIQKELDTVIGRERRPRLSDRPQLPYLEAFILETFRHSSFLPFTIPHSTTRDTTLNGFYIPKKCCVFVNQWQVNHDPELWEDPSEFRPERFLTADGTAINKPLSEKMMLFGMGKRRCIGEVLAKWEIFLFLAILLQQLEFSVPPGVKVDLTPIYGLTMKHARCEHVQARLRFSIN

[36] = biological target: Cytochrome P450 2C9 (Homo sapiens, UniProt P11712)
Sequence of Cytochrome P450 2C9 (P11712 whole entry): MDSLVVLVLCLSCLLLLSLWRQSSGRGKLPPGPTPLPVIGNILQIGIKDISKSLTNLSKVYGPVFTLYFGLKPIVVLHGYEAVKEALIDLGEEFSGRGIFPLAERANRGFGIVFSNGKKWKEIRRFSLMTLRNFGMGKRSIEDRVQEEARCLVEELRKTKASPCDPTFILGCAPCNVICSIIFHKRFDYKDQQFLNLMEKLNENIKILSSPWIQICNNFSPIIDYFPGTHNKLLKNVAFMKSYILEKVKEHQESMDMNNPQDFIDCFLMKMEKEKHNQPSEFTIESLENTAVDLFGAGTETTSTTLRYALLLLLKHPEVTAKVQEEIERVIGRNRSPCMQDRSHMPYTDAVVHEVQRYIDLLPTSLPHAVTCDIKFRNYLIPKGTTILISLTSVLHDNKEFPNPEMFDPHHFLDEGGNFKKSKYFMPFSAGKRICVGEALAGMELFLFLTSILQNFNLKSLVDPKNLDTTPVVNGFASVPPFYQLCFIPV

[37] = biological target: Cytochrome P450 2C19 (Homo sapiens, UniProt P33261)
Sequence of Cytochrome P450 2C19 (P33261 whole entry): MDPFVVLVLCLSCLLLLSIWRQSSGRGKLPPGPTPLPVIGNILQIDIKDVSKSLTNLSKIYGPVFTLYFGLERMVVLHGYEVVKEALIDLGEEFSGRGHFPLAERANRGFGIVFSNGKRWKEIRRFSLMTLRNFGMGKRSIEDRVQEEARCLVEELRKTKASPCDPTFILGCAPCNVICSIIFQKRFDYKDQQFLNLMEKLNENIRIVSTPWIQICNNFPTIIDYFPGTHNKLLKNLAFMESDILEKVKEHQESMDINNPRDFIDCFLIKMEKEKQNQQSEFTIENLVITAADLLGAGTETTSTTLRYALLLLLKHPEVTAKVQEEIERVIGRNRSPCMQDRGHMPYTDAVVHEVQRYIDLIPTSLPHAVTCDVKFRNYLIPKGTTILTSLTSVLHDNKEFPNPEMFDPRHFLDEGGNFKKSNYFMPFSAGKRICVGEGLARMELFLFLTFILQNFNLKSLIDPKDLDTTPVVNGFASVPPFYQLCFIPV

[38] = biological target: Cytochrome P450 2D6 (Homo sapiens, UniProt P10635)
[39] = biological target: Cytochrome P450 3A4 (Homo sapiens, UniProt P08684)
[40] = biological target: Voltage-gated inwardly rectifying potassium channel KCNH2 (Homo sapiens, UniProt Q12809)
[41] = in vitro; conditions: human, Caco-2
[42] = in vitro; conditions: human, Caco-2; remark: listed apart in the source
[43] = physchem; conditions: buffer, pH 7.4
[44] = physchem; conditions: buffer, pH 7.4; remark: listed apart in the source
[45] = Ratio of total drug level in iv dosed rat brain to plasma measured 2 hrs post dose; format: ADME, organism-based; conditions: read-out: BPR
[46] = AUC in Sprague-Dawley rat at 2 mg/kg administered as single dose via oral gavage by LC-MS/MS analysis; format: ADME, organism-based; conditions: in vivo
[47] = Initial plasma concentration in Sprague-Dawley rat at 0.5 mg/kg administered as single iv bolus by LC-MS/MS analysis; format: ADME, organism-based
[48] = Cmax in Sprague-Dawley rat at 2 mg/kg administered as single dose via oral gavage by LC-MS/MS analysis; format: ADME, organism-based; parameters: dose 2 mg/kg, route oral; conditions: in vivo
[49] = Half life in Sprague-Dawley rat at 2 mg/kg administered as single dose via oral gavage by LC-MS/MS analysis; format: ADME, organism-based; conditions: in vivo
[50] = system: Rattus norvegicus; assay: Unbound AUC (0 to last) in Sprague-Dawley rat at 2 mg/kg administered as single dose via oral gavage by LC-MS/MS analysis; format: ADME, organism-based; conditions: in vivo
[51] = Drug level in po dosed rat plasma treated with 5-chloro-4-(((1R,6R)-6-(ethylamino)-2-(4-fluorophenyl)cyclohex-2-enyl)methoxy)-2-fluoro-N-(thiazol-4-yl)benzenesulfonamide; format: ADME, organism-based; conditions: in vivo

Compound `Cl.N[C@@H]1CCC=C(c2ccc(F)cc2)[C@H]1CNc1cc(F)c(S(=O)(=O)Nc2cscn2)cc1Cl` has a Vd [1] of 5.77 L/kg, an IC50 [2] of 0.088 µM and a clearance [3] of 19.8 mL/min/kg. For the same compound, the Vd [4] was 5.77 L/kg, the AUC [5] was 4.86 µM·h and the bioavailability [6] was 30%. It also gave a C0 [7] of 2800 nM, a half-life [8] of 3.64 h and a clearance [9] of 19.8 mL/min/kg. For the same compound, the AUC(0-t) [10] was 4.92 µM·h, the Cmax [11] was 660 nM and the Tmax [12] was 2.67 h. The half-life [13] was 3.39 h, the AUC(0-t) [14] was 4.86 µM·h and the fAUClast [15] was 0.141 µM·h. For the same compound, the pKa [16] was 7.09 to 9.18, the IC50 [17] was 4.02 µM and the IC50 [18] was 2.9 µM. For the same compound, the fraction unbound at 4 h, 2 µM [19] was 0.004, the fraction unbound at 4 h, 2 µM [20] was 0.029 and the CLint scaled at 1 µM [21] was 17.5 mL/min/kg. The CLint scaled at 1 µM [22] was 30.4 mL/min/kg, the inhibition [23] was “Active” and the inhibition [24] was “inactive”. The Activity [25] was “Active”, the concentration at 1 h [26] was 3740 nM and the concentration at 2 h [27] was 3820 nM. The concentration at 4 h [28] was 3160 nM, the “Cp(f)” value [29] was 108 nM and the “Cp(f)” value [30] was 110 nM. The “Cp(f)” value [31] was 91 nM, the Drug uptake [32] was 3.1 µM/g and the Ratio IC50 [33] was greater than 30. The Ratio IC50 [34] was greater than 30, the IC50 [35] was greater than 50 µM and the IC50 [36] was 11.8 µM. For the same compound, the IC50 [37] was 26.2 µM, the IC50 [38] was 3 µM and the IC50 [39] was 33 µM. The IC50 [40] was 4.6 µM, the Papp A→B at 2 h, 2 µM [41] was 0.04 ×10⁻⁶ cm/s and the efflux ratio at 2 h, 2 µM [42] was 251. For the same compound, the logD [43] was 1.5 and the solubility thermodynamic [44] was 135 µM.

`N[C@@H]1CCC=C(c2ccc(F)cc2)[C@H]1COc1cc(F)c(S(=O)(=O)Nc2cscn2)cc1Cl` showed a Kp at 2 h [45] of 0.13, a clearance [3] of 39 to 39.2 mL/min/kg and a Vd [4] of 8.91 L/kg. The AUC [46] was 0.25 µM·h, the C0 [47] was 410 nM and the Cmax [48] was 50 nM. It also gave a half-life [49] of 2.74 h, a fAUClast [50] of 0.005 µM·h and a pKa [16] of 6.13 to 9.05. For the same compound, the IC50 [18] was 4 µM, the fraction unbound at 4 h, 2 µM [19] was 0.008 and the fraction unbound at 4 h, 2 µM [20] was 0.02. The Drug uptake [51] was “Active”.
